Laboratory results from patent US20050260181A1, “Compositions and methods for tissue repair” (Immunopath Profile, Inc., priority 2004, published 2005).
Where two headings read alike, the source gives them in different places.

Legend:
[1] = rats orally; cited from earlier work
[2] = tested on: T47D breast cancer tissue cells; test: MTS breast cancer mitochondrial activity assay; type: cell-based; details: for MTS suppression ratio (mean OD treated / mean OD control), 24 h: culture time 24 h; for MTS suppression ratio (mean OD treated / mean OD control), 24 h / MTS suppression ratio (mean OD treated / mean OD control), 48 h: 1.0 = no effect; for MTS suppression ratio (mean OD treated / mean OD control), 48 h: culture time 48 h
Procedure: In addition to and equal to the effects of high HLB surfactants for comparative testing. These comparative studies were performed and results are reported in the above table. Metabolism was comparatively measured with controls and other extracts as to the reduction of mitochondrial activity, (MTS). This compound is a substrate for the mitochondrial enzymes—and is reduced to a blue formazan product.
In the first experiments—The extracted therapeutic test agents were derived from specified tissue. Water extracts of the crushed tissue, were also prepared. For the later experiments, specific varieties of extracts were prepared and examined: Cells were obtained from American Type Culture Collection (ATCC, Washington, D.C.) and were cultured as recommended by ATCC. Experiments were performed in 96 well microtiter plates. Each well contained 1.0×10^4 cells suspended in a total volume of […]. Test wells contained the designated amount of extract in cell culture medium. Control wells contained the same amount of extract solvent in medium. Plates were incubated in an atmosphere of 5% C02 for 24 or 48 hours with extract or solvent. At this time, […] were added to each well and incubation was continued for an additional 4 hours after which time the optical density (OD) at […] of each well was recorded. In each experiment, each sample was assayed in triplicate and the mean optical density (OD) for the three wells containing the same culture was calculated.
Data are presented as suppression ratios. The suppression ratio defined here as the mean optical density (OD) for the wells containing extract divided by the mean optical density (OD) for the control wells.
The purpose of the work was to determine which therapeutic agent extracts (further separated by chromatography) explored through this methodology for anti-cancer activity. The data presented here represents semi-quantitative anti-cancer screening tests. Extracts with ratios in the range 0.51-0.74 were considered moderately active and therefore appropriate for considered use along with preventive anti-cancer treatment and active anti-cancer treatment. In co-use with anti-cancer treatment and radiation treatment, may lessen the dose and the side effects of these current therapeutic agents. Extracts with metabolism suppression ratios less than or equal to 0.5 represented a suppression of metabolism of at least 50% or greater than that of the controls and were considered definitely active potential anti-cancer agents, as was the case of High HLB Tween 80 with ethylene maturation apoptosis promoting factor with a 76% suppression of mitochondrial metabolism of cancer cells.

[3] = Circulation, blood viscosity and sedimentation rate with intermediate HLB lipid; type: in vivo; details: HLB 8 to 11
From the text: The amount of surface-active polar lipid to include in the composition can be determined by viscosity measurements. Tissue concentration can be measured by viscosity (as used in blood serum which normally is 1.12 to 1.22 centipoise with upper limit of three). In the case of the intermediate HLB 8 to 11 (as exemplified by PC phosphatidylcholine when so used) circulation is improved 25% however there is no change in viscosity or the red blood cell sedimentation rate at these HLB ranges because of the fact that biophysical functional effects is upon the cell membrane. With its use the red cell membrane becomes more plastic, and is made more pliable thereby enhancing circulation and oxygenation.
Component No. 2 contains self-vesiculating essence of HLB 8 to 11 or 12, ideally 10 to 11, cell membrane forming and repairing liquid crystal phosphatidylcholine (PC), thereby increasing pliability of the red cell, blood vessel and endothelial membrane enhancing circulatory function by 25%. Component No. 2 optionally contains high HLB surfactants with packing parameters that not only enhance biologic function and efficiency of protein enzymes and their substrate but also promotes protein refolding and thereby normalizing biologic function. This helps to normalize the biologic function of disease promoting protein structures of Alzheimer's disease, Parkinson's disease, and Mad Cow disease. […]

[4] = rats and mice; cited from earlier work

Compound: CCCCCCCCCCCCOS(=O)(=O)[O-].[Na+] [sodium lauryl sulfate]
- LD 50 [1]: 1288 mg per kilogram

Compound: phosphatidylcholine [PC]
- MTS suppression ratio (mean OD treated / mean OD control), 24 h ([2]; T47D cells): 0.92
- MTS suppression ratio (mean OD treated / mean OD control), 48 h ([2]; T47D cells): 0.98
- improvement of circulation / circulatory function [3]: 25%

Compound: polyoxyethylene Sorbitan Monooleate [Tween 80]
- suppression of mitochondrial metabolism of cancer cells [2]: 76%
- % normalization of Breast cancer cells ([2]; T47D cells): 76%
- MTS suppression ratio (mean OD treated / mean OD control), 24 h ([2]; T47D cells): 0.48
- MTS suppression ratio (mean OD treated / mean OD control), 48 h ([2]; T47D cells): 0.24
- LD 50 [4]: 7.5 ml per kilogram

Compound: polyglycerol polyricinolate [PGPR]
- LD 50 [4]: 7.5 ml per kilogram
